Source: ChEMBL document CHEMBL1137579, “Discovery of 1-[2-[(1S)-(3-dimethylaminopropionyl)amino-2-methylpropyl]-4-methylphenyl]-4-[(2R)-methyl-3-(4-chlorophenyl)-propionyl]piperazine as an orally active antagonist of the melanocortin-4 receptor for the potential treatment of cachexia” (J Med Chem, 2007)
Converted amounts (≈) assume the structure as drawn. Blank lines part the entries; values can stand above or below the compound they belong to. The source made the active and inactive calls. The rule behind the calls is not given here.

Tests used:
Caco-2 = assay: Permeability across Caco-2 cell membrane; type: ADME, cell-based; conditions: human
[1] = molecular target: Melanocyte-stimulating hormone receptor (Homo sapiens) (UniProt Q01726); assay: Displacement of [125I]NDP-MSH from human MC1R
Chain of Melanocyte-stimulating hormone receptor (Homo sapiens) (Q01726 whole entry, looked up): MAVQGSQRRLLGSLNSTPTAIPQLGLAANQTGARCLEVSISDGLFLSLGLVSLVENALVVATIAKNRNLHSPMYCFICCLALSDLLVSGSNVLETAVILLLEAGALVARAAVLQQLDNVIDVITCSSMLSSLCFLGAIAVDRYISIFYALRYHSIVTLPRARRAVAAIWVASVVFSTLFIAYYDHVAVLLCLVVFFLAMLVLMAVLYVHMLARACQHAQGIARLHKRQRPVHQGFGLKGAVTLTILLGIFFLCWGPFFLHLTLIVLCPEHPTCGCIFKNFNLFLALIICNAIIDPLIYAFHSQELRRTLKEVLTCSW

[2] = AUC in rat at 10 mg/kg, po; type: ADME, organism-based; parameters: dose 10 mg/kg, route oral; conditions: plasma
[3] = Drug level in rat brain at 10 mg/kg, po after 1 hr; type: ADME, organism-based; parameters: dose 10 mg/kg, route oral; conditions: read-out: Drug uptake
[4] = Drug level in rat brain at 10 mg/kg, po after 4 hrs; type: ADME, organism-based; parameters: dose 10 mg/kg, route oral; conditions: read-out: Drug uptake
[5] = Oral bioavailability in rat at 10 mg/kg, po; type: ADME, organism-based; conditions: in vivo
[6] = Tmax in rat at 2.5 mg/kg, iv or 10 mg/kg, po; type: ADME, organism-based; conditions: in vivo
[7] = Cmax in rat at 2.5 mg/kg, iv or 10 mg/kg, po; type: ADME, organism-based; conditions: in vivo
[8] = Volume of distribution in rat at 2.5 mg/kg, iv or 10 mg/kg, po; type: ADME, organism-based; conditions: in vivo
[9] = molecular target: Melanocortin receptor 4 (Homo sapiens) (UniProt P32245); assay: Activity at MC4R expressed in HEK293 cells assessed as stimulation of cAMP release at 10 uM relative to alpha-MSH; type: functional, cell-based
Chain of Melanocortin receptor 4 (Homo sapiens) (P32245 whole entry): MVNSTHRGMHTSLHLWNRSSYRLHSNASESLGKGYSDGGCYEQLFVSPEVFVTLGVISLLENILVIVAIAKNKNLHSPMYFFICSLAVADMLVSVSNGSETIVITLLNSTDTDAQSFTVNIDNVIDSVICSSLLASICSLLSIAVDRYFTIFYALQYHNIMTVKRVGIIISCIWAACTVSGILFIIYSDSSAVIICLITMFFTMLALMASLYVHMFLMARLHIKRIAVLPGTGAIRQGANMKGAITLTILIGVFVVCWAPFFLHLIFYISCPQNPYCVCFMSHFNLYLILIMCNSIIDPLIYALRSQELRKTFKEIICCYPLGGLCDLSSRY

Cytochrome P450 3A4 = Cytochrome P450 3A4 (Homo sapiens, UniProt P08684); assay: Inhibition of CYP3A4; type: ADME
Chain of Cytochrome P450 3A4 (P08684 whole entry): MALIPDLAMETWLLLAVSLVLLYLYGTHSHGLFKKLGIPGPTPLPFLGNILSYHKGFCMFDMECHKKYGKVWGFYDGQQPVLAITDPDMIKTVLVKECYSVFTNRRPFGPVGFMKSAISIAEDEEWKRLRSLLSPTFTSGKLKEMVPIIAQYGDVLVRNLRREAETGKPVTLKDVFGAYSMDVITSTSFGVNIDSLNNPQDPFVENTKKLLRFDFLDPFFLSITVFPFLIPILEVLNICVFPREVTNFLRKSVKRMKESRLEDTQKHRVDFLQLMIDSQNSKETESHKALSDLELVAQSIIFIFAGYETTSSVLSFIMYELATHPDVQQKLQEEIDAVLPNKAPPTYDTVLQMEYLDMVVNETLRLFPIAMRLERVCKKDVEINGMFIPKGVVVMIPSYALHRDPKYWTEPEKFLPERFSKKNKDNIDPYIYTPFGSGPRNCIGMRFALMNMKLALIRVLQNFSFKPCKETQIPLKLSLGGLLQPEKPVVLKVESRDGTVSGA

[10] = Ratio of drug level in brain to plasma in rat at 2.5 mg/kg, iv or 10 mg/kg, po after 1 hr; type: ADME, organism-based
[11] = Ratio of drug level in brain to plasma in rat at 2.5 mg/kg, iv or 10 mg/kg, po after 4 hrs; type: ADME, organism-based
[12] = AUC in CD1 mouse at 2.5 mg/kg, iv; type: ADME, organism-based; parameters: dose 2.5 mg/kg, route intravenous; conditions: plasma
[13] = Tmax in CD1 mouse at 10 mg/kg, po; type: ADME, organism-based; parameters: dose 10 mg/kg, route oral; conditions: in vivo, read-out: Tm
[14] = Volume of distribution in rat at 5 mg/kg, iv or 10 mg/kg, po; type: ADME, organism-based; conditions: in vivo
[15] = Oral bioavailability in rhesus monkey at 10 mg/kg, po; type: ADME, organism-based, Macaca mulatta; conditions: in vivo
[16] = Tmax in Beagle dog at 10 mg/kg, po; type: ADME, organism-based, Canis lupus familiaris; parameters: dose 10 mg/kg, route oral; conditions: in vivo, read-out: Tm
[17] = Ratio of drug level in brain to plasma in CD1 mouse at 10 mg/kg, po; type: ADME, organism-based; parameters: dose 10 mg/kg, route oral
[18] = Aqueous solubility at pH 3.0; type: physicochemical; conditions: aqueous medium
Mus musculus [19] = assay: Increase in food intake in C57BL/6J mouse at 5 mg/kg on day 12; type: functional, organism-based; parameters: dose 5 mg/kg
[20] = Oral bioavailability in Beagle dog at 10 mg/kg, po; type: ADME, organism-based, Canis lupus familiaris; conditions: in vivo
[21] = Aqueous solubility at pH 7.0; type: physicochemical; conditions: aqueous medium
[22] = Tmax in CD1 mouse brain at 10 mg/kg, po; type: ADME, organism-based; parameters: dose 10 mg/kg, route oral
Rattus norvegicus = assay: AUC in Sprague-Dawley rat brain at 10 mg/kg, po; type: ADME, organism-based; parameters: dose 10 mg/kg, route oral; conditions: in vivo
[23] = Ratio of drug level in brain to plasma in rat at 5 mg/kg, iv or 10 mg/kg, po after 4 hrs; type: ADME, organism-based
[24] = Cmax in Sprague-Dawley rat brain at 10 mg/kg, po; type: ADME, organism-based; parameters: dose 10 mg/kg, route oral
[25] = AUC in Sprague-Dawley rat at 10 mg/kg, po; type: ADME, organism-based; parameters: dose 10 mg/kg, route oral; conditions: plasma
[26] = Cmax in rhesus monkey at 10 mg/kg, po; type: ADME, organism-based, Macaca mulatta; parameters: dose 10 mg/kg, route oral; conditions: in vivo
[27] = Cmax in rat at 5 mg/kg, iv or 10 mg/kg, po; type: ADME, organism-based; conditions: in vivo
[28] = Tmax in Sprague-Dawley rat at 10 mg/kg, po; type: ADME, organism-based; parameters: dose 10 mg/kg, route oral; conditions: in vivo, read-out: Tm
[29] = Cmax in Sprague-Dawley rat at 10 mg/kg, po; type: ADME, organism-based; parameters: dose 10 mg/kg, route oral; conditions: in vivo
[30] = Cmax in Beagle dog at 10 mg/kg, po; type: ADME, organism-based, Canis lupus familiaris; parameters: dose 10 mg/kg, route oral; conditions: in vivo
Mus musculus [31] = assay: Increase in food intake in C57BL/6J mouse at 20 mg/kg on day 12; type: functional, organism-based; parameters: dose 20 mg/kg
[32] = AUC in CD1 Beagle dog at 10 mg/kg, po; type: ADME, organism-based, Canis lupus familiaris; parameters: dose 10 mg/kg, route oral; conditions: plasma
[33] = AUC in rhesus monkey at 5 mg/kg, iv; type: ADME, organism-based, Macaca mulatta; parameters: dose 5 mg/kg, route intravenous; conditions: plasma
[34] = Tmax in rat at 5 mg/kg, iv or 10 mg/kg, po; type: ADME, organism-based; conditions: in vivo
Mus musculus [35] = assay: AUC in CD1 mouse brain at 10 mg/kg, po; type: ADME, organism-based; parameters: dose 10 mg/kg, route oral; conditions: in vivo
[36] = Dissociation constant, pKa of the compound; type: physicochemical
Mus musculus [37] = assay: Increase in food intake in C57BL/6J mouse at 5 mg/kg on day 11; type: functional, organism-based; parameters: dose 5 mg/kg
[38] = Volume of distribution in Beagle dog at 5 mg/kg, iv; type: ADME, organism-based, Canis lupus familiaris; parameters: dose 5 mg/kg, route intravenous; conditions: in vivo
[39] = AUC in […] rhesus monkey at 10 mg/kg, po; type: ADME, organism-based, Macaca mulatta; parameters: dose 10 mg/kg, route oral; conditions: plasma
[40] = Cmax in CD1 mouse brain at 10 mg/kg, po; type: ADME, organism-based; parameters: dose 10 mg/kg, route oral
[41] = Tmax in rhesus monkey at 10 mg/kg, po; type: ADME, organism-based, Macaca mulatta; parameters: dose 10 mg/kg, route oral; conditions: in vivo, read-out: Tm
[42] = AUC in Beagle dog at 5 mg/kg, iv; type: ADME, organism-based, Canis lupus familiaris; parameters: dose 5 mg/kg, route intravenous; conditions: plasma
Mus musculus [43] = assay: Increase in food intake in C57BL/6J mouse at 5 mg/kg on day 10; type: functional, organism-based; parameters: dose 5 mg/kg
[44] = AUC in CD1 mouse at 10 mg/kg, po; type: ADME, organism-based; parameters: dose 10 mg/kg, route oral; conditions: plasma
[45] = Cmax in CD1 mouse at 10 mg/kg, po; type: ADME, organism-based; parameters: dose 10 mg/kg, route oral; conditions: in vivo
[46] = Oral bioavailability in CD1 mouse at 10 mg/kg, po; type: ADME, organism-based; conditions: in vivo
[47] = Volume of distribution in CD1 mouse at 2.5 mg/kg, iv; type: ADME, organism-based; parameters: dose 2.5 mg/kg, route intravenous; conditions: in vivo
[48] = Volume of distribution in rhesus monkey at 5 mg/kg, iv; type: ADME, organism-based, Macaca mulatta; parameters: dose 5 mg/kg, route intravenous; conditions: in vivo
Mus musculus [49] = assay: Increase in food intake in C57BL/6J mouse at 20 mg/kg on day 11; type: functional, organism-based; parameters: dose 20 mg/kg
[50] = Tmax in Sprague-Dawley rat brain at 10 mg/kg, po; type: ADME, organism-based; parameters: dose 10 mg/kg, route oral
[51] = Ratio of drug level in brain to plasma in rat at 5 mg/kg, iv or 10 mg/kg, po after 1 hr; type: ADME, organism-based
Mus musculus [52] = assay: Increase in food intake in C57BL/6J mouse at 20 mg/kg on day 10; type: functional, organism-based; parameters: dose 20 mg/kg
[53] = Half life in rat at 2.5 mg/kg, iv or 10 mg/kg, po; type: ADME, organism-based; conditions: in vivo
[54] = Plasma clearance in rat at 5 mg/kg, iv

permeability (Caco-2): 0.8 10^-6 cm/s
Activity [9]: 12%
IC50 (Cytochrome P450 3A4): 6.9 µM
SMILES: CNCC(=O)N[C@H](c1cc(C)ccc1N1CCN(C(=O)[C@H](C)Cc2ccc(Cl)cc2F)CC1)C(C)C

Activity [9]: 5%
SMILES: Cc1ccc(N2CCN(C(=O)[C@H](C)Cc3ccc(Cl)cc3F)CC2)c([C@@H](N)C(C)C)c1

permeability (Caco-2): 5 10^-6 cm/s
SMILES: Cc1ccc(N2CCN(C(=O)[C@H](C)Cc3ccc(Cl)cc3)CC2)c([C@@H](N)C(C)C)c1

AUC [2]: 1.47 µg·h/mL
concentration at 1 h [3]: 8 ng/g
concentration at 4 h [4]: 31 ng/g
bioavailability [5]: 13%
Tmax [6]: 4.7 h
Cmax [7]: 0.134 µg/mL
Vd [8]: 4.2 L/kg
SMILES: Cc1ccc(N2CCN(C(=O)[C@H](C)Cc3ccc(Cl)cc3F)CC2)c([C@@H](NC(=O)CCN(C)C)C(C)C)c1

Activity [9]: 2%
SMILES: Cc1ccc(N2CCN(C(=O)[C@H](C)Cc3ccc(Cl)cc3C)CC2)c([C@@H](N)C(C)C)c1

AUC [2]: 0.299 µg·h/mL
concentration at 1 h [3]: < 5 ng/g
concentration at 4 h [4]: < 5 ng/g
half-life [53]: 17 h
permeability (Caco-2): 0.3 10^-6 cm/s
bioavailability [5]: 13%
Tmax [6]: 6 h
Cmax [7]: 0.022 µg/mL
Activity [9]: 7%
clearance [54]: 3.6 L/h/kg
Vd [8]: 95 L/kg
SMILES: CNCCN[C@H](c1cc(C)ccc1N1CCN(C(=O)[C@H](C)Cc2ccc(Cl)cc2F)CC1)C(C)C

Continued, compound first:

SMILES: Cc1ccc(N2CCN(C(=O)[C@H](C)Cc3ccc(Cl)cc3)CC2)c([C@@H](NC(=O)CCN)C(C)C)c1
permeability (Caco-2): 0.3 10^-6 cm/s
Activity [1]: 42%

SMILES: CNCCC(=O)N[C@H](c1cc(C)ccc1N1CCN(C(=O)[C@H](C)Cc2ccc(Cl)cc2)CC1)C(C)C
AUC [2]: 0.563 µg·h/mL
concentration at 1 h [3]: < 5 ng/g
concentration at 4 h [4]: < 5 ng/g
permeability (Caco-2): 1.2 10^-6 cm/s
bioavailability [5]: 15%
Tmax [6]: 3.3 h
Cmax [7]: 0.057 µg/mL
Activity [1]: 43%
Vd [8]: 20 L/kg

SMILES: Cc1ccc(N2CCN(C(=O)[C@H](C)Cc3ccc(Cl)cc3C)CC2)c([C@@H](NC(=O)CCN(C)C)C(C)C)c1
AUC [2]: 1.95 µg·h/mL
concentration at 1 h [3]: 9 ng/g
concentration at 4 h [4]: 42 ng/g
permeability (Caco-2): 1.9 10^-6 cm/s
bioavailability [5]: 5.6%
Tmax [6]: 4 h
Cmax [7]: 0.208 µg/mL
Kp at 1 h [10]: 0.1
Kp at 4 h [11]: 0.3
Vd [8]: 4.3 L/kg

SMILES: Cc1ccc(N2CCN(C(=O)[C@H](C)Cc3ccc(Cl)cc3)CC2)c([C@@H](NC(=O)CCN(C)C)C(C)C)c1
AUC [2]: 1.4 µg·h/mL
concentration at 1 h [3]: 20 ng/g
AUC [12]: 1.41 µg·h/mL
concentration at 4 h [4]: 33 ng/g
Tmax [13]: 0.5 h
Vd [14]: 13 L/kg
permeability (Caco-2): 6.2 10^-6 cm/s
bioavailability [15]: 19%
Tmax [16]: 1.7 h
Kp [17]: 0.15
solubility [18]: > 71 mg/mL
Activity (Mus musculus [19]): Active
bioavailability [5]: 43%
bioavailability [20]: 19%
solubility [21]: 33 mg/mL (≈ 62.6 mM)
Tmax [22]: 0.3 h
AUC (Rattus norvegicus): 254 ng·h/g
Kp at 4 h [23]: 0.4
Cmax [24]: 41 ng/g
AUC [25]: 1.52 µg·h/mL
Cmax [26]: 0.761 µg/mL
Cmax [27]: 0.11 µg/mL
Tmax [28]: 2.7 h
Cmax [29]: 0.279 µg/mL
Cmax [30]: 0.262 µg/mL
Activity (Mus musculus [31]): Active
AUC [32]: 2.86 µg·h/mL
Activity [1]: 50%
AUC [33]: 10.3 µg·h/mL
Tmax [34]: 4.7 h
AUC (Mus musculus [35]): 367 ng·h/g
pKa [36]: 7.8
Activity (Mus musculus [37]): Active
Vd [38]: 5.9 L/kg
AUC [39]: 3.86 µg·h/mL
Cmax [40]: 91 ng/g
Tmax [41]: 1.8 h
AUC [42]: 8.2 µg·h/mL
Activity (Mus musculus [43]): Active
AUC [44]: 2.53 µg·h/mL
Cmax [45]: 0.946 µg/mL
bioavailability [46]: 32%
Vd [47]: 4.1 L/kg
Vd [48]: 2 L/kg
Activity (Mus musculus [49]): Active
Tmax [50]: 6 h
Kp at 1 h [51]: 0.2
Activity (Mus musculus [52]): Active
